Assay results reported in ChEMBL document CHEMBL1134038, “New triterpenes, myrrhanol A and myrrhanone A, from guggul-gum resins, and their potent anti-inflammatory effect on adjuvant-induced air-pouch granuloma of mice” (2001).

How the values were obtained:
Assay type in all cases: functional
[1] = system: Mus musculus; experiment: Inhibitory effect on inflammatory process II (migration: inflammatory cell count) at a log dose of -5.25mol/kg, ip relative to hydrocortisone on adjuvant-induced air-pouch granulomas of mice
[2] = system: Mus musculus; experiment: Inhibitory effect on inflammatory process III (angiogenesis: carmine content) at a log dose of -6mol/kg, ip relative to hydrocortisone on adjuvant-induced air-pouch granulomas of mice
[3] = system: Mus musculus; experiment: Anti-inflammatory effect on inflammatory process I (exudation: pouch fluid weight) at a log dose of -1.5g/kg, ip, in adjuvant-induced air-pouch granuloma of mice(*)
[4] = system: Mus musculus; experiment: Anti-inflammatory effect on inflammatory process I (exudation: pouch fluid weight) at a log dose of -2.25g/kg, ip, in adjuvant-induced air-pouch granuloma of mice(*)
[5] = system: Mus musculus; experiment: Anti-inflammatory effect on inflammatory process II (migration: inflammatory cell count) at a log dose of -3g/kg, ip, in adjuvant-induced air-pouch granuloma of mice(*)
[6] = system: Mus musculus; experiment: Anti-inflammatory effect on inflammatory process IV (granuloma formation) at a log dose of -2.25g/kg, ip, in adjuvant-induced air-pouch granuloma of mice(*)
[7] = organism: Mus musculus; experiment: Inhibitory dose required against exudation (pouch fluid weight) tested for antiinflammatory activity in mice(parentheses value represents 95% confidence limits); conditions: read-out: ID50 (the source's name)
[8] = system: Mus musculus; experiment: Inhibitory effect on inflammatory process I (exudation: pouch fluid weight) at a log dose of -5.6mol/kg, ip relative to hydrocortisone on adjuvant-induced air-pouch granulomas of mice
[9] = organism: Mus musculus; experiment: Inhibitory dose required against granuloma formation tested for antiinflammatory activity in mice(parentheses value represents 95% confidence limits); conditions: read-out: ID50 (the source's name)
[10] = system: Mus musculus; experiment: Inhibitory effect on inflammatory process IV (granuloma formation) at a log dose of -6mol/kg, ip relative to hydrocortisone on adjuvant-induced air-pouch granulomas of mice
[11] = system: Mus musculus; experiment: Inhibitory effect on inflammatory process III (angiogenesis: carmine content) at a log dose of -5.25mol/kg, ip relative to hydrocortisone on adjuvant-induced air-pouch granulomas of mice
[12] = system: Mus musculus; experiment: Weak anti-inflammatory and inflammatory effect on inflammatory process I (exudation: pouch fluid weight) at a log dose of -3g/kg, ip, in adjuvant-induced air-pouch granuloma of mice(**)
[13] = system: Mus musculus; experiment: Weak anti-inflammatory and inflammatory effect on inflammatory process IV (granuloma formation) at a log dose of -2.2g/kg, ip, in adjuvant-induced air-pouch granuloma of mice(**)
[14] = system: Mus musculus; experiment: Anti-inflammatory effect on inflammatory process III (angiogenesis: carmine content) at a log dose of -3g/kg, ip, in adjuvant-induced air-pouch granuloma of mice(*)
[15] = system: Mus musculus; experiment: Anti-inflammatory effect on inflammatory process IV (granuloma formation) at a log dose of -1.5g/kg, ip, in adjuvant-induced air-pouch granuloma of mice(*)
[16] = organism: Mus musculus; experiment: Inhibitory dose required against angiogenesis (carmine content) tested for antiinflammatory activity in mice(parentheses value represents 95% confidence limits); conditions: read-out: ID50 (the source's name)
[17] = system: Mus musculus; experiment: Inhibitory effect on inflammatory process I (exudation: pouch fluid weight) at a log dose of -5.25mol/kg, ip relative to hydrocortisone on adjuvant-induced air-pouch granulomas of mice
[18] = system: Mus musculus; experiment: Inhibitory effect on inflammatory process I (exudation: pouch fluid weight) at a log dose of -6mol/kg, ip relative to hydrocortisone on adjuvant-induced air-pouch granulomas of mice
[19] = system: Mus musculus; experiment: Weak anti-inflammatory and inflammatory effect on inflammatory process II (migration: inflammatory cell count) at a log dose of -1.5g/kg, ip, in adjuvant-induced air-pouch granuloma of mice(**)
[20] = system: Mus musculus; experiment: Anti-inflammatory effect on inflammatory process I (exudation: pouch fluid weight) at a log dose of -3g/kg, ip, in adjuvant-induced air-pouch granuloma of mice(*)
[21] = system: Mus musculus; experiment: Inhibitory effect on inflammatory process IV (granuloma formation) at a log dose of -5.6mol/kg, ip relative to hydrocortisone on adjuvant-induced air-pouch granulomas of mice
[22] = system: Mus musculus; experiment: Inhibitory effect on inflammatory process II (migration: inflammatory cell count) at a log dose of -6mol/kg, ip relative to hydrocortisone on adjuvant-induced air-pouch granulomas of mice
[23] = system: Mus musculus; experiment: Anti-inflammatory effect on inflammatory process II (migration: inflammatory cell count) at a log dose of -2.25g/kg, ip, in adjuvant-induced air-pouch granuloma of mice(*)
[24] = system: Mus musculus; experiment: Anti-inflammatory effect on inflammatory process III (angiogenesis: carmine content) at a log dose of -1.5g/kg, ip, in adjuvant-induced air-pouch granuloma of mice(*)
[25] = system: Mus musculus; experiment: Weak anti-inflammatory and inflammatory effect on inflammatory process III (angiogenesis: carmine content) at a log dose of -3g/kg, ip, in adjuvant-induced air-pouch granuloma of mice(**)
[26] = system: Mus musculus; experiment: Weak anti-inflammatory and inflammatory effect on inflammatory process I (exudation: pouch fluid weight) at a log dose of -1.5g/kg, ip, in adjuvant-induced air-pouch granuloma of mice(**)
[27] = system: Mus musculus; experiment: Weak anti-inflammatory and inflammatory effect on inflammatory process III (angiogenesis: carmine content) at a log dose of -2.2g/kg, ip, in adjuvant-induced air-pouch granuloma of mice(**)
[28] = system: Mus musculus; experiment: Weak anti-inflammatory and inflammatory effect on inflammatory process III (angiogenesis: carmine content) at a log dose of -1.5g/kg, ip, in adjuvant-induced air-pouch granuloma of mice(**)
[29] = system: Mus musculus; experiment: Inhibitory effect on inflammatory process IV (granuloma formation) at a log dose of -5.25mol/kg, ip relative to hydrocortisone on adjuvant-induced air-pouch granulomas of mice
[30] = system: Mus musculus; experiment: Anti-inflammatory effect on inflammatory process III (angiogenesis: carmine content) at a log dose of -2.25g/kg, ip, in adjuvant-induced air-pouch granuloma of mice(*)
[31] = system: Mus musculus; experiment: Weak anti-inflammatory and inflammatory effect on inflammatory process II (migration: inflammatory cell count) at a log dose of -3g/kg, ip, in adjuvant-induced air-pouch granuloma of mice(**)
[32] = system: Mus musculus; experiment: Weak anti-inflammatory and inflammatory effect on inflammatory process II (migration: inflammatory cell count) at a log dose of -2.2g/kg, ip, in adjuvant-induced air-pouch granuloma of mice(**)
[33] = system: Mus musculus; experiment: Inhibitory effect on inflammatory process II (migration: inflammatory cell count) at a log dose of -5.6mol/kg, ip relative to hydrocortisone on adjuvant-induced air-pouch granulomas of mice
[34] = system: Mus musculus; experiment: Anti-inflammatory effect on inflammatory process II (migration: inflammatory cell count) at a log dose of -1.5g/kg, ip, in adjuvant-induced air-pouch granuloma of mice(*)
[35] = system: Mus musculus; experiment: Inhibitory effect on inflammatory process III (angiogenesis: carmine content) at a log dose of -5.6mol/kg, ip relative to hydrocortisone on adjuvant-induced air-pouch granulomas of mice
[36] = system: Mus musculus; experiment: Weak anti-inflammatory and inflammatory effect on inflammatory process IV (granuloma formation) at a log dose of -1.5g/kg, ip, in adjuvant-induced air-pouch granuloma of mice(**)
[37] = system: Mus musculus; experiment: Weak anti-inflammatory and inflammatory effect on inflammatory process I (exudation: pouch fluid weight) at a log dose of -2.2g/kg, ip, in adjuvant-induced air-pouch granuloma of mice(**)
[38] = system: Mus musculus; experiment: Anti-inflammatory effect on inflammatory process IV (granuloma formation) at a log dose of -3g/kg, ip, in adjuvant-induced air-pouch granuloma of mice(*)
[39] = system: Mus musculus; experiment: Weak anti-inflammatory and inflammatory effect on inflammatory process IV (granuloma formation) at a log dose of -3g/kg, ip, in adjuvant-induced air-pouch granuloma of mice(**)
[40] = organism: Mus musculus; experiment: Inhibitory dose required against migration (inflammatory cell count) tested for antiinflammatory activity in mice(parentheses value represents 95% confidence limits); conditions: read-out: ID50 (the source's name)

In the case of `C/C(=C\CC/C(C)=C/CC/C(C)=C/CC[C@@H]1[C@@]2(C)CC[C@H](O)C(C)(C)C2CC[C@@]1(C)O)CO` (stereo partly specified), the Relative amount [1] is reported as 115%, the Relative amount [2] is reported as 87% and the Relative amount [3] is reported as <15%. For the same compound, the Relative amount [4] was 35%, the Relative amount [5] was 80% and the Relative amount [6] was <65%. The ED50 [7] was 1.75 µmol/kg, the Relative amount [8] was <20% and the ED50 [9] was 5.83 µmol/kg. The Relative amount [10] was 85%, the Relative amount [11] was <30% and the Relative amount [12] was 100%. For the same compound, the Relative amount [13] was 62%, the Relative amount [14] was <63% and the Relative amount [15] was <55%. For the same compound, the ED50 [16] was 2.8 µmol/kg, the Relative amount [17] was <5% and the Relative amount [18] was 70%. For the same compound, the Relative amount [19] was 65%, the Relative amount [20] was 45% and the Relative amount [21] was <75%. The Relative amount [22] was 105%, the Relative amount [23] was 65% and the Relative amount [24] was <50%. It also gave a Relative amount [25] of 75%, a Relative amount [26] of 25% and a Relative amount [27] of 65%. The Relative amount [28] was 50%, the Relative amount [29] was <50% and the Relative amount [30] was <52%. The Relative amount [31] was 100%, the Relative amount [32] was 70% and the Relative amount [33] was 90%. For the same compound, the Relative amount [34] was 60%, the Relative amount [35] was <47% and the Relative amount [36] was 60%. The Relative amount [37] was 27%, the Relative amount [38] was <70% and the Relative amount [39] was 80%.

In the case of `C/C(=C\CC/C(C)=C/CC/C(C)=C/CC[C@@H]1[C@@]2(C)CCC(=O)C(C)(C)C2CC[C@@]1(C)O)CO` (stereo partly specified), the Relative amount [2] is reported as 105%, the Relative amount [3] is reported as 60% and the Relative amount [4] is reported as 65%. The Relative amount [5] was 95%, the Relative amount [6] was <68% and the Relative amount [10] was 75%. For the same compound, the Relative amount [12] was 70%, the Relative amount [13] was 100% and the Relative amount [14] was 83%. For the same compound, the Relative amount [15] was <55%, the Relative amount [18] was 90% and the Relative amount [19] was 175%. For the same compound, the Relative amount [20] was 75%, the Relative amount [22] was 75% and the Relative amount [23] was 85%. For the same compound, the Relative amount [24] was <50%, the Relative amount [25] was 90% and the Relative amount [26] was 250%. It also gave a Relative amount [27] of 185%, a Relative amount [28] of 180% and a Relative amount [30] of 83%. For the same compound, the Relative amount [31] was 85%, the Relative amount [32] was 170% and the Relative amount [34] was 70%. The Relative amount [36] was 100%, the Relative amount [37] was 225% and the Relative amount [38] was 80%. For the same compound, the Relative amount [39] was 65%.

`C[C@]12CCC(=O)C=C1CCC1[C@@H]2[C@@H](O)C[C@@]2(C)[C@H]1CC[C@]2(O)C(=O)CO` (single isomer, unassigned) [HYDROCORTISONE] showed an ED50 [7] of 6.31 µmol/kg, an ED50 [9] of 29.2 µmol/kg and an ED50 [16] of 22.1 µmol/kg. For the same compound, the ED50 [40] was 11.7 µmol/kg.
